Measured values: article PMC9386018, “A lymphatic-absorbed multi-targeted kinase inhibitor for myelofibrosis therapy” (Nature Communications, 2022)
Several values for one entry are separate records, joined by “and”; a condition that tells them apart may be missing. Equal entries are not always repeated.

Experiments:
[1] = Pharmacokinetic analysis of plasma after intravenous and oral dosing; details: plasma, mice, analyte = label, individual animals
Experimental: Samples were centrifuged at 15,000 rpm for 10 min, then blood plasma was collected from the upper layer and frozen at −80 °C until analysis. […] Sample processing, chromatographic separation, MS, and MS/MS parameters used for analysis were determined by the core. […] Standard curves for peak area ratio of compound to internal standard (Astd/AIstd) vs. compound concentration were used to determine sample analyte concentrations through linear regression with a weighting average of 1/X^2. […] All pharmacokinetic parameters were estimated using non-compartmental analysis with Phoenix/WINONLIN, and provided by the core along with calculated sample analyte concentrations. Data was generated from n ≥ 3 individual animals sampled per time point per compound for each method of dosing.

[2] = biological target: Target kinase isoforms (PI3K, mTOR, RAF, MEK) (Homo sapiens, UniProt P42336); test: Target kinase isoforms 10-point IC50 determination (Supplementary Fig. 7); type: biochemical; details: PI3K alpha
From the text: (§1) The average percent kinase inhibition from replicate data was ranked low to high, converted to a compatible identifier format, then input into Coral Human Kinome Visualization software for presentation analysis. […] Scaling of evolutionary distance for PI kinases is only relative and is based on literature analysis[62],[63]. Average percent kinome inhibition values from replicate data are supplied in Source Data file. […] Corrected data was normalized to vehicle treated control values, and dose response percent kinase activity was analyzed by non-linear regression for determination of IC50 values.

[3] = biological target: Target kinase isoforms (PI3K, mTOR, RAF, MEK) (Homo sapiens, UniProt P42338); test: as above; type: biochemical; details: PI3K beta
From the text: as §1

[4] = biological target: Target kinase isoforms (PI3K, mTOR, RAF, MEK) (Homo sapiens, UniProt P48736); test: as above; type: biochemical; details: PI3K gamma
From the text: as §1

[5] = biological target: Target kinase isoforms (PI3K, mTOR, RAF, MEK) (Homo sapiens, UniProt P42345); test: as above; type: biochemical; details: mTOR
From the text: as §1

mTOR = mTOR (Homo sapiens, UniProt P42345); test: Target kinase 10-point inhibition assay, mTOR; type: biochemical; details: replicates
Experimental: Quantitation of kinase inhibition was carried out by Life Technologies (Madison, WI) using the SelectScreen profiling platforms Z’-LYTE^TM and Adapta^TM. Single-point broad panel kinome screening was performed at 2.5 µM LP-182 against all kinases within the Z’-LYTE^TM and Adapta^TM assays (321 kinase isoforms, holoenzymes, or mutant variants). The average percent kinase inhibition from replicate data was ranked low to high, converted to a compatible identifier format, then input into Coral Human Kinome Visualization software for presentation analysis. […] Scaling of evolutionary distance for PI kinases is only relative and is based on literature analysis[62],[63]. Average percent kinome inhibition values from replicate data are supplied in Source Data file. […]. Corrected data was normalized to vehicle treated control values, and dose response percent kinase activity was analyzed by non-linear regression for determination of IC50 values.

[6] = concentration 0.495 nM, 0.000495 µM
[7] = concentration 1.52 nM, 0.00152 µM
[8] = concentration 4.57 nM, 0.00457 µM

Chain of Target kinase isoforms (PI3K, mTOR, RAF, MEK) (Homo sapiens, UniProt P42338) (P42338 whole entry, canonical isoform): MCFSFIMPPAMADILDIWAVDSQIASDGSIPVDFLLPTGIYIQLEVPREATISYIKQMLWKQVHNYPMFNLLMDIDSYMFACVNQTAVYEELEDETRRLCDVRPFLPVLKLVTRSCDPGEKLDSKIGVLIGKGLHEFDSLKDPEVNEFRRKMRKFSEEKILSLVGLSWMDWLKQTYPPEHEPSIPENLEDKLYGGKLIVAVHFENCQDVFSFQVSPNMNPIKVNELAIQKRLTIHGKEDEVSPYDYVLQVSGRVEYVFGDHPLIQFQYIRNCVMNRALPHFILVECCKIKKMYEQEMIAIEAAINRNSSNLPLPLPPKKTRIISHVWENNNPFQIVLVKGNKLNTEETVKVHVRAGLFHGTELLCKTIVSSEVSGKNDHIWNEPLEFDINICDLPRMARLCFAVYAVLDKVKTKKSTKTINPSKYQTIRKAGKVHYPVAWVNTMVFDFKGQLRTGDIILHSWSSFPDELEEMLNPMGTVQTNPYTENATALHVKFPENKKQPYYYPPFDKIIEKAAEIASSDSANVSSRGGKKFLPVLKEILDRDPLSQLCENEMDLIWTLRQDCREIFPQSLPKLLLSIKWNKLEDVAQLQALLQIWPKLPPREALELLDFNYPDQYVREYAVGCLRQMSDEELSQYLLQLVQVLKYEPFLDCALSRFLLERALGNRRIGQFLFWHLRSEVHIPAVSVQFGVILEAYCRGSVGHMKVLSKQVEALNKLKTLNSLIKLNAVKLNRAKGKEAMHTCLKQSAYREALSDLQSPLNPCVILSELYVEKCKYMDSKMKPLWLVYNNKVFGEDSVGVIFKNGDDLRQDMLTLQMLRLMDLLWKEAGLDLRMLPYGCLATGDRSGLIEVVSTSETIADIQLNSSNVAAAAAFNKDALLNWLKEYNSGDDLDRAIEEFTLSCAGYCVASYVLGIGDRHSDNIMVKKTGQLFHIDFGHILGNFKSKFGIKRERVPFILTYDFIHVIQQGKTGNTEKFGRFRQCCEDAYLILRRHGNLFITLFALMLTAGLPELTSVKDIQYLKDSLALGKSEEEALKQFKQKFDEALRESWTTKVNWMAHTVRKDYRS
Chain of Target kinase isoforms (PI3K, mTOR, RAF, MEK) (Homo sapiens, UniProt P42336) (P42336 whole entry, canonical isoform): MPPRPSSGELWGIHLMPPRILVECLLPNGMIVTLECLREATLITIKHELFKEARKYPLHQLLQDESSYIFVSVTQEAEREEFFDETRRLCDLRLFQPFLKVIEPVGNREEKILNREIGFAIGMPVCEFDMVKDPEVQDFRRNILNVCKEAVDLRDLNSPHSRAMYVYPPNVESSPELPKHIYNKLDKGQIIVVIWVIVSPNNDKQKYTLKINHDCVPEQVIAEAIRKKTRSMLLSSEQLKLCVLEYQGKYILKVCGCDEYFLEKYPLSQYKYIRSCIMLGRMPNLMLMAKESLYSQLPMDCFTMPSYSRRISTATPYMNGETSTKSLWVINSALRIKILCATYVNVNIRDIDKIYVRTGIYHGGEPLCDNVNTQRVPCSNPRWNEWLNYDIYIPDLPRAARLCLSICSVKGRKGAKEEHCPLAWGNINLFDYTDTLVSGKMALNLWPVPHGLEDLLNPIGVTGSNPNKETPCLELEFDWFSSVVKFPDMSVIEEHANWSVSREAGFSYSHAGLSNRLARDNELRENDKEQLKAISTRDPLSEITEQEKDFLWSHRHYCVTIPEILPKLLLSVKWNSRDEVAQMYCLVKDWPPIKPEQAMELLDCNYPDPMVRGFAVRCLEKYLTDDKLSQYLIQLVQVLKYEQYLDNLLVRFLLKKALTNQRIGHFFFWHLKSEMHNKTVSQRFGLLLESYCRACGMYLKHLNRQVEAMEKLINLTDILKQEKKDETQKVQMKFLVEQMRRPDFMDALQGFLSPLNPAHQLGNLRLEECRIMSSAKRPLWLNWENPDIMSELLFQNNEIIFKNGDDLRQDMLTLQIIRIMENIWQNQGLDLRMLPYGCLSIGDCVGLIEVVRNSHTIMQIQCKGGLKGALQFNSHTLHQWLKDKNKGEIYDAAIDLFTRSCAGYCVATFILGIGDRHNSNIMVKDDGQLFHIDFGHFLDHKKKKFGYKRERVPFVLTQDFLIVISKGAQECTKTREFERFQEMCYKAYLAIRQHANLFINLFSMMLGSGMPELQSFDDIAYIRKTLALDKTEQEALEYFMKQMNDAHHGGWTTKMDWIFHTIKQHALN
Chain of Target kinase isoforms (PI3K, mTOR, RAF, MEK) (Homo sapiens, UniProt P48736) (P48736 whole entry, canonical isoform): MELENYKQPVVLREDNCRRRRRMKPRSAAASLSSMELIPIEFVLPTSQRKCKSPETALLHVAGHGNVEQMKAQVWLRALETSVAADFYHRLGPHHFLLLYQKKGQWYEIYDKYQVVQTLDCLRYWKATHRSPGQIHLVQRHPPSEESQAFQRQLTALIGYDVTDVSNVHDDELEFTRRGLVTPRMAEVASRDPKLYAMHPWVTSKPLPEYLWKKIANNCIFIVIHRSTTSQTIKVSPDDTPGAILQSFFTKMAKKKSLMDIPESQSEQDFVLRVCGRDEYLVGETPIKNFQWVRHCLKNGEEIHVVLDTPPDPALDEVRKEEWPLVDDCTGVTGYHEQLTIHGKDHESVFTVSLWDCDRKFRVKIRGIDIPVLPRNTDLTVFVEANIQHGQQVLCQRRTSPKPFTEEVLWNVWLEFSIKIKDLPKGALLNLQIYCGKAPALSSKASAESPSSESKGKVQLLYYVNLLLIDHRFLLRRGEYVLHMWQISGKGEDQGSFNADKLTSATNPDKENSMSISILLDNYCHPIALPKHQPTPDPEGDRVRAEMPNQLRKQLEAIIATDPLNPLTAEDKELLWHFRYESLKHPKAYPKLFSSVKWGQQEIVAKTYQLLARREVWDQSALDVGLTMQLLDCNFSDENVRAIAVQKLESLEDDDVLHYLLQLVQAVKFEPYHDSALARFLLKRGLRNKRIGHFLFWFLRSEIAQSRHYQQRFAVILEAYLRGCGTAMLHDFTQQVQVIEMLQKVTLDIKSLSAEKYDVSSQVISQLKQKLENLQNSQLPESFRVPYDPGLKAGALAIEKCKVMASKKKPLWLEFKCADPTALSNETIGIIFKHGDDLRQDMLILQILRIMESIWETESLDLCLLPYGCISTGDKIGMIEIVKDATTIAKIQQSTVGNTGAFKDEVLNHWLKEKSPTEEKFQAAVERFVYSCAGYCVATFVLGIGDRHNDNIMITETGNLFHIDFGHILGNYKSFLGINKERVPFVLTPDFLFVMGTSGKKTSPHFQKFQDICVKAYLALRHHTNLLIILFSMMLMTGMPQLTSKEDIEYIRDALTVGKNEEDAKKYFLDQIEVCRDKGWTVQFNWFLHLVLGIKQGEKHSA

Q: With `O=S(=O)(Nc1cc(-c2ccc3ncc(N4CCNCC4)nc3c2)cnc1Cl)c1ccc(F)cc1` [LP-527, N-(2-chloro-5-(3-(piperazin-1-yl)quinoxalin-6-yl)pyridin-3-yl)-4-fluorobenzenesulfonamide] as the compound, how does the concentration at 0.167 h ([1]; female, CD-1, mouse, iv, 15 mg kg^−1, Concentration (ng/mL), single i.v. LP-182 15 mg kg^−1, 0.167 h) read?
A: 15.5 ng/mL

Q: And the concentration at 0.5 h ([1]; female, CD-1, mouse, iv, 15 mg kg^−1, Concentration (ng/mL), single i.v. LP-182 15 mg kg^−1, 0.5 h)?
A: 7.17 ng/mL

Q: And the concentration at 1 h ([1]; female, CD-1, mouse, iv, 15 mg kg^−1, Concentration (ng/mL), single i.v. LP-182 15 mg kg^−1, 1 h)?
A: 6.53 ng/mL

Q: And the concentration at 0.5 h ([1]; female, CD-1, mouse, po, 400 mg kg^−1, Concentration (ng/mL), single p.o. LP-182 400 mg kg^−1, 0.5 h)?
A: 9.62 ng/mL

Q: What about the concentration at 16 h ([1]; female, CD-1, mouse, po, 400 mg kg^−1, Concentration (ng/mL), single p.o. LP-182 400 mg kg^−1, 16 h) of the same compound?
A: 19 ng/mL

Q: What about the “Concentration” value ([1]; single i.v. LP-182 15 mg kg^−1, 0.167 h) of the same compound?
A: 14.8 ng/mL and 14.5 ng/mL

Q: And the “Concentration” value ([1]; single i.v. LP-182 15 mg kg^−1, 0.5 h)?
A: 7.97 ng/mL and 7.89 ng/mL

Q: What about the “Concentration” value ([1]; single i.v. LP-182 15 mg kg^−1, 1 h) of the same compound?
A: 5.65 ng/mL and 6.42 ng/mL

Q: And the “Concentration” value ([1]; single i.v. LP-182 15 mg kg^−1, 2 h)?
A: 2.97 ng/mL and 2.53 ng/mL and 1.08 ng/mL

Q: And the “Concentration” value ([1]; single p.o. LP-182 400 mg kg^−1, 0.167 h)?
A: 7.25 ng/mL and 15.1 ng/mL and 1.83 ng/mL

Q: And the “Concentration” value ([1]; single p.o. LP-182 400 mg kg^−1, 0.5 h)?
A: 13.1 ng/mL and 15 ng/mL

Q: And the “Concentration” value ([1]; single p.o. LP-182 400 mg kg^−1, 1 h)?
A: 29.3 ng/mL and 56.7 ng/mL and 12.7 ng/mL

Q: And the “Concentration” value ([1]; single p.o. LP-182 400 mg kg^−1, 2 h)?
A: 12.6 ng/mL and 14.5 ng/mL and 5.44 ng/mL

Q: What about the “Concentration” value ([1]; single p.o. LP-182 400 mg kg^−1, 4 h) of the same compound?
A: 23.5 ng/mL and 11.5 ng/mL and 14 ng/mL

Q: And the “Concentration” value ([1]; single p.o. LP-182 400 mg kg^−1, 7 h)?
A: 27.3 ng/mL and 11.6 ng/mL and 31.5 ng/mL

Q: What about the “Concentration” value ([1]; single p.o. LP-182 400 mg kg^−1, 16 h) of the same compound?
A: 12.8 ng/mL and 13.1 ng/mL

Q: What about the “Concentration” value ([1]; single p.o. LP-182 400 mg kg^−1, 24 h) of the same compound?
A: 24.5 ng/mL and 9.81 ng/mL and 21.4 ng/mL

Q: And the “Kinase Activity (%) PI3K alpha” value ([2]; concentration 0.00626 nM, 6.26 pM)?
A: 96% and 108% and 85% and 101%

Q: What about the activity at 18.8 pM ([2]; concentration 0.0188 nM) of the same compound?
A: 97%

Q: What about the “Kinase Activity (%) PI3K alpha” value ([2]; concentration 0.0188 nM, 18.8 pM) of the same compound?
A: 110% and 96% and 100%

Q: And the activity at 56.4 pM ([2]; concentration 0.0564 nM)?
A: 104%

Q: What about the “Kinase Activity (%) PI3K alpha” value ([2]; concentration 0.0564 nM, 56.4 pM) of the same compound?
A: 103% and 96% and 99%

Q: What about the activity at 0.000495 µM ([2]; concentration 0.495 nM) of the same compound?
A: 47%

Q: What about the “Kinase Activity (%) PI3K alpha” value [2, 6] of the same compound?
A: 55% and 56% and 58%

Q: And the activity at 0.00152 µM ([2]; concentration 1.52 nM)?
A: 29%

Q: And the “Kinase Activity (%) PI3K alpha” value [2, 7]?
A: 28% and 30% and 31%

Q: And the activity at 0.00457 µM ([2]; concentration 4.57 nM)?
A: 15%

Q: And the “Kinase Activity (%) PI3K alpha” value [2, 8]?
A: 11% and 9%

Q: And the “Kinase Activity (%) PI3K alpha” value ([2]; concentration 41.2 nM, 0.0412 µM)?
A: 3% and 2% and 0%

Q: What about the “Kinase Activity (%) PI3K beta” value ([3]; concentration 0.0187 nM, 18.7 pM) of the same compound?
A: 86% and 99% and 98%

Q: What about the “Kinase Activity (%) PI3K beta” value ([3]; concentration 0.0562 nM, 56.2 pM) of the same compound?
A: 94% and 122% and 99% and 98%

Q: What about the “Kinase Activity (%) PI3K beta” value [3, 6] of the same compound?
A: 87% and 91% and 92% and 97% and 104% and 103% and 82% and 98%

Q: And the “Kinase Activity (%) PI3K beta” value ([3]; concentration 123 nM, 0.123 µM)?
A: 6% and 7% and 8% and 13%

Q: And the activity at […] ([3]; concentration 370 nM)?
A: 4%

Q: What about the “Kinase Activity (%) PI3K beta” value ([3]; concentration 370 nM, […]) of the same compound?
A: 3%

Q: And the activity at 1.11 µM ([3]; concentration 1110 nM)?
A: 5%

Q: What about the “Kinase Activity (%) PI3K beta” value ([3]; concentration 1110 nM, 1.11 µM) of the same compound?
A: 3%

Q: What about the “Kinase Activity (%) PI3K beta” value ([3]; concentration 3330 nM, 3.33 µM) of the same compound?
A: 7% and 6% and 3%

Q: And the “Kinase Activity (%) PI3K beta” value ([3]; concentration 10000 nM, 10 µM)?
A: 7% and 0% and 3%

Q: And the activity at 6.09 pM ([3]; concentration […])?
A: 108%

Q: What about the activity at 18.7 pM ([4]; concentration 0.0187 nM) of the same compound?
A: 118%

Q: And the “Kinase Activity (%) PI3K gamma” value ([4]; concentration 3330 nM, 3.33 µM)?
A: 0% and 3%

Q: And the “Kinase Activity (%) PI3K gamma” value ([4]; concentration 10000 nM, 10 µM)?
A: 3% and 0% and 8%

Q: What about the activity at 6.09 pM ([4]; concentration […]) of the same compound?
A: 110%

Q: What about the activity at 0.000495 µM ([5]; concentration 0.495 nM) of the same compound?
A: 96%

Q: And the “Kinase Activity (%) mTOR” value [5, 6]?
A: 89% and 90% and 92%

Q: And the activity at 0.00152 µM ([5]; concentration 1.52 nM)?
A: 78%

Q: And the “Kinase Activity (%) mTOR” value [5, 7]?
A: 80% and 77% and 74% and 83% and 76%

Q: And the activity at 0.00457 µM ([5]; concentration 4.57 nM)?
A: 63%

Q: And the “Kinase Activity (%) mTOR” value [5, 8]?
A: 61% and 56% and 52% and 57% and 58%

Q: What about the “Kinase Activity (%) mTOR” value ([5]; concentration 123 nM, 0.123 µM) of the same compound?
A: 7% and 3% and 2% and 5% and 0%

Q: And the “Kinase Activity (%) mTOR” value ([5]; concentration 1110 nM, 1.11 µM)?
A: 5% and 3% and 2% and -4% and -2% and -1%

Q: What about the “Kinase Activity (%) mTOR” value ([5]; concentration 3330 nM, 3.33 µM) of the same compound?
A: 3% and 2% and 1% and -3% and -2% and -4%

Q: And the “Kinase Activity (%) mTOR” value ([5]; concentration 10000 nM, 10 µM)?
A: 6% and 3% and 0% and -1% and 1% and -2%

Q: And the activity at 0.000495 µM (mTOR; 0.495 nM)?
A: 96%

Q: And the “Kinase Activity (%)” value (mTOR; 0.495 nM, 0.000495 µM)?
A: 89% and 90% (2×) and 92%

Q: And the activity at 0.00152 µM (mTOR; 1.52 nM)?
A: 78%

Q: What about the “Kinase Activity (%)” value (mTOR; 1.52 nM, 0.00152 µM) of the same compound?
A: 80% and 77% and 74% and 83% and 76%

Q: What about the activity at 0.00457 µM (mTOR; 4.57 nM) of the same compound?
A: 63%

Q: What about the “Kinase Activity (%)” value (mTOR; 4.57 nM, 0.00457 µM) of the same compound?
A: 61% and 56% and 52% and 57% and 58%

Q: And the “Kinase Activity (%)” value (mTOR; 41.2 nM, 0.0412 µM)?
A: 15% and 14% and 8% and 12% and 0% and 10%

Q: And the “Kinase Activity (%)” value (mTOR; 123 nM, 0.123 µM)?
A: 7% (2×) and 3% and 2% and 5% and 0%

Q: What about the “Kinase Activity (%)” value (mTOR; 1110 nM, 1.11 µM) of the same compound?
A: 5% and 3% and 2% and -4% and -2% and -1%

Q: What about the “Kinase Activity (%)” value (mTOR; 3330 nM, 3.33 µM) of the same compound?
A: 3% and 2% and 1% and -3% and -2% and -4%

Q: And the “Kinase Activity (%)” value (mTOR; 10000 nM, 10 µM)?
A: 6% and 3% and 0% and -1% and 1% and -2%
